The source of these data is US20260021158A1, “GRANULAR COMPOSITIONS COMPRISING A PEPTIDE AND USES THEREOF” (TARSIER PHARMA LTD., priority 2022, published 2026).

The data set is described as follows: Assay of physical mixtures and extrudates for API stability by HPLC-UV. In kind it is physicochemical. The note with it: after the grinding and sieving process as well as extrusion; physical mixture and extrudate. As to the method:
Physical mixtures were assayed for drug load and stability post grinding and sieving. 5 mg of sample was weighed into an aluminum weighing boat and transferred to a low-binding Eppendorf, followed by the addition of 50 uL of ACN. This was vortexed vigorously until the polymer had dissolved and the API precipitated. Next, water was added and the mixture vortexed vigorously again until the API dissolved completely, and polymer had precipitated. For the 18% drug loaded physical mixtures, 2950 μL water was added and for the 9% drug loaded physical mixtures, 1450 μL water was added. Lastly, the Eppendorfs were centrifuged for 30 seconds at a speed of 5′000 RPM.
Extrudates were assayed for drug load and stability by cutting them to specific weights to give the same end concentration as the standards (net peptide concentration of 0.3 mg/mL) after the addition of diluent. […] Lastly, the Eppendorfs were centrifuged and supernatants analyzed.
Drug load and stability of API in the extrudates were quantified by HPLC-UV as describe above. […] Additionally, the homogeneity of the entire length of the extrudate was assessed by cutting and weighing three 3 mm pieces from each section from 1 to 16 (N=16, n=3) and assaying in the same way as outlined above (Assay of physical mixtures by HPLC-UV). Lastly, the average diameter of the extrudates was measured by caliper.

`C[C@@H](O)[C@H](NN)C(=O)N[C@@H](CCCCN)C(=O)N1CCC[C@H]1C(=O)N[C@@H](CCCNC(=N)N)C(=O)C(=O)CNNC(Cc1ccc(O)c(/N=N/c2ccc(OP(=O)([O-])OCC[N+](C)(C)C)cc2)c1)C(=O)O` (stereo partly shown) [PTC, Dazdotuftide]: the “stability of API after processing” value is given as “stable”.
